Source: ChEMBL document CHEMBL1151237, “Chamuvarinin, an acetogenin bearing a tetrahydropyran ring from the roots of Uvaria chamae” (J Nat Prod, 2004)

Experiment: Cytotoxicity against human KB3-1 cells by colorimetric assay
Assay type: functional, cell-based
Conditions: KB 3-1

## CCCCCCC1CCCC(C2CCC([C@H]3CC[C@H]([C@H](O)CCCCCCCCCCCCC4=C[C@H](C)OC4=O)O3)O2)O1 (some centres not stated) [CHAMUVARININ]
  IC50: 800 pM

## CCCCCC[C@H](O)CCC[C@H](O)[C@H]1CC[C@H]([C@H]2CC[C@H]([C@H](O)CCCCCCCCCCCCC3=C[C@H](C)OC3=O)O2)O1 [SQUAMOCIN]
  IC50: 3 pM
